# Key:
# rat mGlu5 = rat mGlu5 (Rattus norvegicus, UniProt P31424); assay: calcium mobilization PAM assay, high-expressing rat mGlu5 HTS cell line; type: cell-based; conditions: for allosteric agonist activity: rat mGlu5 (ago-PAM); for % Glu Max (rmGlu5): rat mGlu5 cell line; for mGlu5 PAM activity: rat mGlu5, high expressing rat cell line
# human mGlu5 = human mGlu5 (Homo sapiens, UniProt P41594); assay: PAM assay in lower expressing human mGlu5 cell line; type: cell-based
# mGlu5 MPEP site = mGlu5 MPEP site (Rattus norvegicus, UniProt P31424); assay: [3H]-methoxyPEPy radioligand displacement; type: binding
# [1] = rat plasma protein binding; type: in vitro ADME
# [2] = human plasma protein binding; type: in vitro ADME
# [3] = tested on: 68 GPCRs, ion channels and transporters; assay: Ricerca radioligand binding panel; conditions: at 10 μM; 68 targets
# Ca = assay: cardiovascular safety ion channel panel, Ca; type: biochemical; conditions: read-out: IC50 Ca; functional activity
# Na = assay: cardiovascular safety ion channel panel, Na; type: biochemical; conditions: read-out: IC50 Na; functional activity
# [4] = membranes isolated from rmGlu5, up to 30 μM compound
# human mGlu5, sequence (P41594 21-1212): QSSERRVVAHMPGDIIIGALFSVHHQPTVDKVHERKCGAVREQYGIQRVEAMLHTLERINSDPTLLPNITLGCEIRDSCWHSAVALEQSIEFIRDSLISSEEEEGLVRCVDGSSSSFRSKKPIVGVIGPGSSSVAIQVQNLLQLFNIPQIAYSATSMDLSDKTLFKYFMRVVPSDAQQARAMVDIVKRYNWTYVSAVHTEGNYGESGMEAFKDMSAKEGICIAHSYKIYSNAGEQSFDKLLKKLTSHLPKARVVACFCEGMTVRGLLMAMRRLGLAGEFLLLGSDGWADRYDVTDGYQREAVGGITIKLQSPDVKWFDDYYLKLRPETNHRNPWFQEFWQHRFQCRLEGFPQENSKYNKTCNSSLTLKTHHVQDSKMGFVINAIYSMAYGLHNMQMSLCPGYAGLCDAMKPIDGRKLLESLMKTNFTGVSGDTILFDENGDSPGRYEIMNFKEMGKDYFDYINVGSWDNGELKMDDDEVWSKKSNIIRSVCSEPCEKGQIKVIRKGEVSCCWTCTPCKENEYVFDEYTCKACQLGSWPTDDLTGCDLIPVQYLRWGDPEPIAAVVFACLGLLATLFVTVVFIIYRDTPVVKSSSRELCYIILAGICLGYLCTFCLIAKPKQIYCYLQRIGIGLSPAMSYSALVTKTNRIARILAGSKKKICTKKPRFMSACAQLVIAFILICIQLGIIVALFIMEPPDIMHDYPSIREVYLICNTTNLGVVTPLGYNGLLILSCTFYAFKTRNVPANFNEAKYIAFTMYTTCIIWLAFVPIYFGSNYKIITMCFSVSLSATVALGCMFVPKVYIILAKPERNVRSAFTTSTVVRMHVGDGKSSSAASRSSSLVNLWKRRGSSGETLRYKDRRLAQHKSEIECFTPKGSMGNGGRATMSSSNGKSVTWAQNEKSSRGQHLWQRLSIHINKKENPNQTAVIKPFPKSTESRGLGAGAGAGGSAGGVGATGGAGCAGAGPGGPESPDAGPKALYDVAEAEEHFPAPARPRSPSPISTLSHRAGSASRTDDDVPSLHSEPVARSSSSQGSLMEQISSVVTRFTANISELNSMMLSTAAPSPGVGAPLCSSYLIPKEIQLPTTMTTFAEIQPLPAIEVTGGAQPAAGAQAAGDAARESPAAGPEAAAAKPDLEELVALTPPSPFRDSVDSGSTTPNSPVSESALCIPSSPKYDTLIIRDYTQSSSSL
# mGlu5 MPEP site, sequence (P31424 21-1203): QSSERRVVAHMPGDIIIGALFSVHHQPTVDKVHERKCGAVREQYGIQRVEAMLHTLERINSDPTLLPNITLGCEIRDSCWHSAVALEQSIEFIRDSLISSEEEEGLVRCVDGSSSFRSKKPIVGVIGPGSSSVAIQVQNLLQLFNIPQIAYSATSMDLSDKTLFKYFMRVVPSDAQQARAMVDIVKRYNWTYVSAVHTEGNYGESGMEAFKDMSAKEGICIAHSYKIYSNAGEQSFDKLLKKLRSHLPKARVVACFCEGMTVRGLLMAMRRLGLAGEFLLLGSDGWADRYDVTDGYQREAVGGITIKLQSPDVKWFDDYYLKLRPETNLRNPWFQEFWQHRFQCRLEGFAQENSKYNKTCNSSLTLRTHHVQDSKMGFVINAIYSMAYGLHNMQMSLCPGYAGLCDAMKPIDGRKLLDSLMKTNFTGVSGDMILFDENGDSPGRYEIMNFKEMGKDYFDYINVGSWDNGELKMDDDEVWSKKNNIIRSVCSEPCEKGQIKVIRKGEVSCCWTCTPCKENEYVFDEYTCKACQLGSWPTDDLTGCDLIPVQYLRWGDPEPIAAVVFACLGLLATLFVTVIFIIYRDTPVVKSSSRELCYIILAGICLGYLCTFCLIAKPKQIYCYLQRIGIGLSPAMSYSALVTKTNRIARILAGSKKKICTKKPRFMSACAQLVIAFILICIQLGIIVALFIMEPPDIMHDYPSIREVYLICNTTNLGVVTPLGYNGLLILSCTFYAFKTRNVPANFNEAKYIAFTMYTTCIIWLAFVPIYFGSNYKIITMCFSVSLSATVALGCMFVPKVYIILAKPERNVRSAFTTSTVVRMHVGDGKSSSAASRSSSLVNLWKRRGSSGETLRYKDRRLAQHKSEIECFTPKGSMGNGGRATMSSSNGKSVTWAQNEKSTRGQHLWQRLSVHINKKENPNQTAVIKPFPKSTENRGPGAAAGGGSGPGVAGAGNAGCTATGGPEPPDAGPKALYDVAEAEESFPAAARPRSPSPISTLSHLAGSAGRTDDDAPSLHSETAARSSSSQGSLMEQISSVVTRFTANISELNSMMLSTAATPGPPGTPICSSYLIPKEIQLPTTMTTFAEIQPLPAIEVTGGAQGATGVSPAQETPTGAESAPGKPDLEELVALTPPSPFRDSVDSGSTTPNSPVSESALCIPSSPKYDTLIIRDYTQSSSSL
# rat mGlu5, sequence (P31424 21-1203): as above
smiles,measurement,setting,value
CS(=O)(=O)N(CC(=O)Nc1ccccc1)c1ccccc1Cl [15a],allosteric agonist activity,rat mGlu5,strong allosteric agonist activity
same,% Glu Max (rmGlu5),rat mGlu5,61 % Glu Max
same,% Glu Max (hmGlU5),human mGlu5,77 % Glu Max
CS(=O)(=O)N(CC(=O)Nc1ccc(F)cn1)c1ccccc1Cl [15b],% Glu Max (rmGlu5),rat mGlu5,66 % Glu Max
CS(=O)(=O)N(CC(=O)Nc1cccnc1F)c1ccccc1Cl [15c],% Glu Max (rmGlu5),rat mGlu5,64 % Glu Max
same,% Glu Max (hmGlU5),human mGlu5,42 % Glu Max
CS(=O)(=O)N(CC(=O)Nc1cccc(Cl)c1)c1ccccc1Cl [compound 9],EC50,rat mGlu5,0.098 µM
same,allosteric agonist activity,rat mGlu5,strong allosteric agonist activity
same,fold shift,"rat mGlu5; rat mGlu5, value for 15a estimated because of agonist activity",7.9 fold
same,% Glu Max (rmGlu5),rat mGlu5,74 % Glu Max
same,% Glu Max (hmGlU5),human mGlu5,63 % Glu Max
CS(=O)(=O)N(CC(=O)NCC1CC1)c1cc(C(F)(F)F)ccc1Cl [compound 24],mGlu5 PAM activity,rat mGlu5,moderately potent
same,mGlu5 PAM activity,human mGlu5,moderately potent
same,displacement of [3H]-methoxyPEPy,mGlu5 MPEP site; in words,did not displace
same,plasma protein binding,[1],significantly reduced
same,plasma protein binding,[2],significantly reduced
same,inhibition in Ricerca radioligand binding panel,[3],< 50 % inhibition
same,IC50,Ca,> 10 µM
same,IC50,Na,> 10 µM
O=S(=O)(c1ccc(C#Cc2cccc(F)c2)cc1)N1CCOCC1 [compound 25],mGlu5 PAM activity,rat mGlu5,weak to moderately active PAMs
same,displacement of [3H]-methoxyPEPy,mGlu5 MPEP site; [4],no displacement
O=S(=O)(c1ccc(F)cc1)N1CCC[C@H](c2nc(-c3ccc(F)cc3)no2)C1 [compound 26],mGlu5 PAM activity,rat mGlu5,weak to moderately active PAMs
same,mGlu5 PAM activity,human mGlu5,weak PAM
same,displacement of [3H]-methoxyPEPy,mGlu5 MPEP site; [4],no displacement

# Source: paper PMC3539767 (Bioorganic & medicinal chemistry letters, 2012)
